# “And” between values parts separate entries of the source, which are not always exact repeats. Equal entries are not always repeated.
# Assay: SGLU1 multiple dose toxicology in vivo
# Set-up: species or system mice
# Experimental: Further studies were performed to determine the dose-limiting toxicity associated with the administration of repeated doses in groups of mice. Tables 11–16 below describe the results of the multiple-dose toxicology studies for MER-1 and Tables 17–21 describe results of the multiple-dose toxicology of SGLU-1.
# The results of the SGLU-1 Multiple Dose I.V. are summarized as follows: Five mice/sex were administered 5 daily intravenous injections of SGLU via the tail vein at doses of 50, 100, 150, 200, 250, 300, and 350 mg/kg/day. All surviving mice were held for 28 days, sacrificed, and designated tissues collected, formalin fixed, and examined.
# [1] = 5 daily IV injections, 50–350 mg/kg/day
smiles,measurement,setting,value
"C[As](C)SC[C@H](NC(=O)CC[C@H](N)C(=O)O)C(=O)NCC(=O)O [SGLU1, S-(dimethylarsino) glutathione]","Kidney: Congestion, incidence","300 mg/kg/day, F",1/5
same,"Liver: Hepatocyte hypertrophy: Centrilobular (compatible with SER), incidence","300 mg/kg/day, F",2/5
same,"Liver: Hepatocyte hypertrophy: Panlobular w/eosinophilia, incidence","300 mg/kg/day, F",1/5
same,"Liver: Pyogranuloma, focal, incidence","300 mg/kg/day, F",1/5
same,"Lung: Atelectasis, incidence","300 mg/kg/day, F",1/5
same,"Lung: Congestion, incidence","300 mg/kg/day, F",3/5
same,"Lung: Vasculitis, incidence","300 mg/kg/day, F",1/5
same,Number of animals/dose that tolerated 1 dose,"300 mg/kg/day, F",1/5
same,Number of animals/dose that tolerated 2 doses,"300 mg/kg/day, F",2/5
same,Number of animals/dose that tolerated 5 doses,"300 mg/kg/day, F",2/5
same,"Tail: Acute necrosis with vasculitis, thrombosis, and hemorrhage, incidence","300 mg/kg/day, F",1/5
same,Body Weights Avg.,"300 mg/kg/day, Female",24 grams
same,"Epididymus: Oligospermia, incidence","300 mg/kg/day, M",2/5
same,"Heart: Medial hyprtrophy, coronary artery, incidence","300 mg/kg/day, M",1/5
same,"Liver: Hepatocyte hypertrophy: Centrilobular (compatible with SER), incidence","300 mg/kg/day, M",4/5
same,"Liver: Pyogranuloma, focal, incidence","300 mg/kg/day, M",2/5
same,"Lung: Congestion, incidence","300 mg/kg/day, M",1/5
same,Number of animals/dose that tolerated 1 dose,"300 mg/kg/day, M",3/5
same,Number of animals/dose that tolerated 5 doses,"300 mg/kg/day, M",2/5
same,"Tail: Acute necrosis with vasculitis, thrombosis, and hemorrhage, incidence","300 mg/kg/day, M",1/5
same,"Tail: Ulcerative dermatitis, incidence","300 mg/kg/day, M",1/5
same,"Testes: Seminiferous tubular degeneration, incidence","300 mg/kg/day, M",2/5
same,Body Weights Avg.,"300 mg/kg/day, Male",23 grams
same,Clinical Signs,350 mg/kg/day IV daily x5,Moderate decr. activity and 2 M tail necr.: amputate
same,"Kidney: Murine progressive glomerulonephropathy, incidence","350 mg/kg/day, F",1/5
same,"Liver: Hepatocyte hypertrophy: Periportal w/vacuolation, incidence","350 mg/kg/day, F",2/5
same,"Liver: Inflammation, portal, incidence","350 mg/kg/day, F",1/5
same,"Lung: Congestion, incidence","350 mg/kg/day, F",2/5
same,"Lung: Fibrin Thrombi, incidence","350 mg/kg/day, F",1/5
same,"Lung: Vasculitis, incidence","350 mg/kg/day, F",1/5
same,"Mandibular L. N.: Apoptosis, lymphocyte, incidence","350 mg/kg/day, F",1/5
same,Number of animals/dose that tolerated 1 dose,"350 mg/kg/day, F",4/5
same,Number of animals/dose that tolerated 2 doses,"350 mg/kg/day, F",1/5
same,"Spleen: Congestion, incidence","350 mg/kg/day, F",5/5
same,"Thymus: Apoptosis, increased, incidence","350 mg/kg/day, F",5/5
same,Body Weights Avg.,"350 mg/kg/day, Female",24 grams
same,"Bone Marrow: Myeloid hyperplasia, incidence","350 mg/kg/day, M",1/5
same,"Epididymus: Oligospermia, incidence","350 mg/kg/day, M",5/5
same,"Kidney: Congestion, incidence","350 mg/kg/day, M",1/5
same,"Kidney: Inflammation, focal, incidence","350 mg/kg/day, M",1/5
same,"Liver: Hepatocyte hypertrophy: Centrilobular (compatible with SER), incidence","350 mg/kg/day, M",1/5
same,"Liver: Increased mitoses, incidence","350 mg/kg/day, M",1/5
same,"Liver: Pyogranuloma, focal, incidence","350 mg/kg/day, M",2/5
same,"Lung: Fibrin Thrombi, incidence","350 mg/kg/day, M",1/5
same,"Lung: Hemorrhage, focal, incidence","350 mg/kg/day, M",2/5
same,Number of animals/dose that tolerated 1 dose,"350 mg/kg/day, M",3/5
same,Number of animals/dose that tolerated 5 doses,"350 mg/kg/day, M",2/5
same,"Spleen: Congestion, incidence","350 mg/kg/day, M",2/5
same,"Spleen: Extramedullary hematopoiesis, increased, incidence","350 mg/kg/day, M",1/5
same,"Tail: Acute necrosis with vasculitis, thrombosis, and hemorrhage, incidence","350 mg/kg/day, M",1/5
same,"Testes: Seminiferous tubular degeneration, incidence","350 mg/kg/day, M",5/5
same,"Thymus: Apoptosis, increased, incidence","350 mg/kg/day, M",2/5
same,Body Weights Avg.,"350 mg/kg/day, Male",20 grams
same,deaths (summary),[1],"Deaths occurred at 250, 300, and 350 mg/kg/day with female mice being more susceptible than males"
same,microscopic observations (summary),[1],"compound-related lesions in lung, liver, thymus, and testes"
same,"Deaths, number of animals/dose","5 daily IV injections, F, 50 mg/kg/day",0/5
same,"Deaths, number of animals/dose","5 daily IV injections, F, 150 mg/kg/day",0/5
same,"Deaths, number of animals/dose","5 daily IV injections, F, 200 mg/kg/day",0/5
same,"Deaths, number of animals/dose","5 daily IV injections, F, 250 mg/kg/day",1/5
same,"Deaths, number of animals/dose","5 daily IV injections, F, 300 mg/kg/day",3/5
same,"Deaths, number of animals/dose","5 daily IV injections, F, 350 mg/kg/day",5/5
same,"Deaths, number of animals/dose","5 daily IV injections, M, 50 mg/kg/day",0/5
same,"Deaths, number of animals/dose","5 daily IV injections, M, 100 mg/kg/day",0/5
same,"Deaths, number of animals/dose","5 daily IV injections, M, 150 mg/kg/day",0/5
same,"Deaths, number of animals/dose","5 daily IV injections, M, 200 mg/kg/day",0/5
same,"Deaths, number of animals/dose","5 daily IV injections, M, 250 mg/kg/day",0/5
same,"Deaths, number of animals/dose","5 daily IV injections, M, 300 mg/kg/day",1/5
same,"Deaths, number of animals/dose","5 daily IV injections, M, 350 mg/kg/day",3/5
same,no-observable-effect level,"5 daily IV injections, female mice",150 mg/kg
same,"centrilobular hypertrophy of hepatocytes, incidence","5 daily IV injections, female mice, 200 mg/kg/day",1/5
same,no-observable-effect level (NOEL),"5 daily IV injections, male mice",100 mg/kg/day
same,"testicular seminiferous tubular degeneration, incidence","5 daily IV injections, males, 150 mg/kg/day",1/5

# From patent US6995188B2 (priority 2002, dated 2006)
